Source: patent publication US8835632B2, “Methods to increase the photostability of dyes” (The University of North Carolina at Chapel Hill, priority 2007, dated 2014)

Key:
Assay type in all cases: physicochemical
[1] = Absorption and fluorescence spectra, extinction coefficient, fluorescence quantum yield
Protocol: Absorption spectra were recorded on a Hewlett-Packard 8453 diode array UV-Vis spectrophotometer (Agilent Technologies, Inc., Santa Clara, Calif.), and fluorescence measurements were taken on a SPEX® Fluorolog 2 spectrofluorometer (HORIBA Jobin Yvon, Inc., Edison, N.J.). Melting points are not corrected. NMR spectra were obtained on a Varian Mercury 300 MHz (Varian, Inc., Palo Alto, Calif.) or on a Bruker 300 MHz DRX 300 spectrometer (Bruker Biospin Corp., Billerica, Mass.). Mass spectra were obtained on a Hewlett-Packard 1100 high-performance liquid chromatograph equipped with an 1100 mass selective detector (MS-ESI) (Agilent Technologies, Inc.).
With decreasing solvent polarity, the absorption maximum of dyes 1a-b, 2a-d shifted to longer wavelengths, and the intensity of the transition increased (Table 10, FIG. 11).
The SCRF/VSCRF predicted emission energies and the solute dipole moments before and after the vertical emission process are given in Table 16. The dipole moments of AI-BA(4) and AI-SO(4) are further decreased on the S1 surface after geometry relaxation (in MeOH solution), and then increased during the S1→S0 transition. This observation is consistent with the blue shifts of the emission bands of AI-BA(4) and AI-SO(4) with increasing solvent polarity from C6H6 to MeOH. By contrast, the dipole moment of I-SO further decreases after S1 state geometry relaxation, and then decreases during the vertical emission process. This observation also is in agreement with the red shift of the I-SO emission band with increasing solvent polarity from C6H6 to MeOH. Similarly to the absorption case, a negligible red shift (ΔEem=0.017 eV) was predicted for the emission band of I-TBA with increasing solvent polarity. A small red shift from C6H6 to DMF (with ΔEem=0.020 eV, or Δλmax=6 nm) is observed. The nearly equal emission energy observed in C6H6 and MeOH can again result in the explicit interactions between the solute and solvent molecules.

[2] = Photobleaching under constant illumination from a halogen tungsten lamp filtered through glass
Text: The photostability of dyes can be important for applications in living cells. The mechanism of photobleaching for merocyanines of varying structure has been examined See Toutchkine et al., J. Am. Chem. Soc. 125:4132-4145 (2003). The photostability of the presently disclosed dyes was characterized by exposing them to constant illumination from a halogen tungsten lamp filtered through glass. This broad spectrum light source provided essentially equal intensity throughout the spectral range where the dyes absorb and where they would be irradiated in vivo (about 600 nm to about 650 nm).

[3] = Relative rate of reaction with chemically generated singlet oxygen in DMSO; settings: 2.5 mM, 1O2 from 1,4-dimethylnaphtalene-1,4-endoperoxide
Protocol: The bleaching rates for the dyes differed by two orders of magnitude. The relative rate constants kr (rel) for product formation during reaction with singlet oxygen were measured by comparing the percent conversions for dyes dissolved in DMSO containing a fixed amount of ^1O2 (2.5 mM solutions; ^1O2 generated by decomposition of 1,4-dimethylnaphtalene-1,4-endoperoxide). The rates were generally higher for dyes with a polar ground state (1a, 2a, 2b, 2d) than for the dyes with their ground state at the “cyanine limit” (3, 4). […] Olefins without allylic hydrogens react with singlet oxygen to form dioxetanes. Dioxetanes are unstable and decompose, to form two carbonyl compounds.

[4] = MeOH, with respect to standard I-TBA in MeOH

## Cn1c([O-])c(/C=C/C=C/c2cc[n+]3c(c2)C(C)(C)c2ccccc2-3)c(=O)n(C)c1=O [AI-BA]
[1]; C6H6
  Absorption energy Eabs Exp: 1.873 eV
  Emission energy Eem Exp: 1.851 eV
[1]; MeOH
  Absorption energy Eabs Exp: 2.120 eV
  Emission energy Eem Exp: 2.006 eV
[1]; Table 10, BuOH
  Observed absorption (ε): (154000)
  Observed absorption λmax: 615 nm
[1]; Table 10, C6H6
  Observed absorption (ε): ±201000)
  Observed absorption λmax: 662 nm
[1]; Table 10, CH2Cl2
  Observed absorption (ε): (224000)
  Observed absorption λmax: 647 nm
[1]; Table 10, CH3CN
  Observed absorption (ε): (141000)
  Observed absorption λmax: 621 nm
[1]; Table 10, DMF
  Observed absorption (ε): (146000)
  Observed absorption λmax: 625 nm
[1]; Table 10, DMSO
  Observed absorption (ε): (122000)
  Observed absorption λmax: 617 nm
[1]; Table 10, EtOH
  Observed absorption (ε): (104000)
  Observed absorption λmax: 604 nm
[1]; Table 10, MeOH
  Observed absorption (ε): (83000)
  Observed absorption λmax: 585 nm
[1]; Table 10, OcOH
  Observed absorption (ε): (143000)
  Observed absorption λmax: 628 nm
[1]; Table 10, i-PrOH
  Observed absorption (ε): (132000)
  Observed absorption λmax: 614 nm
[1]; Table 12, C6H6
  Absorption Exp wavelength: 662 nm
[1]; Table 12, MeOH
  Absorption Exp wavelength: 585 nm
[1]; Table 15, BuOH
  Observed emission (Φ): 0.29
  Observed emission λmax: 654 nm
[1]; Table 15, C6H6
  Observed emission (Φ): 0.01
  Observed emission λmax: 670 nm
[1]; Table 15, CH2Cl2
  Observed emission (Φ): 0.03
  Observed emission λmax: 664 nm
[1]; Table 15, CH3CN
  Observed emission (Φ): 0.05
  Observed emission λmax: 652 nm
[1]; Table 15, DMF
  Observed emission (Φ): 0.26
  Observed emission λmax: 658 nm
[1]; Table 15, DMSO
  Observed emission (Φ): 0.23
  Observed emission λmax: 657 nm
[1]; Table 15, EtOH
  Observed emission (Φ): 0.19
  Observed emission λmax: 651 nm
[1]; Table 15, MeOH
  Observed emission (Φ): 0.52
  Observed emission λmax: 618 nm
[1]; Table 15, OcOH
  Observed emission (Φ): 0.64
  Observed emission λmax: 656 nm
[1]; Table 15, i-PrOH
  Observed emission (Φ): 0.22
  Observed emission λmax: 652 nm
[1]; blue shift of absorption band C6H6 to MeOH
  Eabs(MeOH)-Eabs(C6H6) Exp: 0.247 eV
[2]; MeOH
  kph * 10^6 (absolute rate of photobleaching): 68 s^−1
[2]; [4]
  kph(rel) (relative rate of photobleaching): 200
[3]
  kr(rel) (relative rate constants for product formation during reaction with singlet oxygen produced chemically): 25.6

## CC1(C)c2ccccc2-[n+]2ccc(/C=C/C3=C([O-])c4ccccc4S3(=O)=O)cc21 [AI-SO(2)]
[1]; Table 10, BuOH
  Observed absorption (ε): (120000)
  Observed absorption λmax: 554 nm
[1]; Table 10, C6H6
  Observed absorption (ε): (235000)
  Observed absorption λmax: 570 nm
[1]; Table 10, CH2Cl2
  Observed absorption (ε): (218000)
  Observed absorption λmax: 561 nm
[1]; Table 10, CH3CN
  Observed absorption (ε): (149000)
  Observed absorption λmax: 549 nm
[1]; Table 10, DMF
  Observed absorption (ε): (157000)
  Observed absorption λmax: 556 nm
[1]; Table 10, DMSO
  Observed absorption (ε): (126000)
  Observed absorption λmax: 555 nm
[1]; Table 10, EtOH
  Observed absorption (ε): (111000)
  Observed absorption λmax: 549 nm
[1]; Table 10, MeOH
  Observed absorption (ε): (92000)
  Observed absorption λmax: 542 nm
[1]; Table 10, OcOH
  Observed absorption (ε): (150000)
  Observed absorption λmax: 559 nm
[1]; Table 10, i-PrOH
  Observed absorption (ε): (132000)
  Observed absorption λmax: 553 nm
[1]; Table 15, BuOH
  Observed emission (Φ): 0.16
  Observed emission λmax: 567 nm
[1]; Table 15, C6H6
  Observed emission (Φ): 0.02
  Observed emission λmax: 577 nm
[1]; Table 15, CH2Cl2
  Observed emission (Φ): 0.06
  Observed emission λmax: 571 nm
[1]; Table 15, CH3CN
  Observed emission (Φ): 0.06
  Observed emission λmax: 561 nm
[1]; Table 15, DMF
  Observed emission (Φ): 0.16
  Observed emission λmax: 567 nm
[1]; Table 15, DMSO
  Observed emission (Φ): 0.24
  Observed emission λmax: 567 nm
[1]; Table 15, EtOH
  Observed emission (Φ): 0.09
  Observed emission λmax: 563 nm
[1]; Table 15, MeOH
  Observed emission (Φ): 0.05
  Observed emission λmax: 561 nm
[1]; Table 15, OcOH
  Observed emission (Φ): 0.21
  Observed emission λmax: 569 nm
[1]; Table 15, i-PrOH
  Observed emission (Φ): 0.13
  Observed emission λmax: 565 nm
[2]; MeOH
  kph * 10^6 (absolute rate of photobleaching): 0.7 s^−1
[2]; [4]
  kph(rel) (relative rate of photobleaching): 2.1
[3]
  kr(rel) (relative rate constants for product formation during reaction with singlet oxygen produced chemically): 20.3

## CC1(C)c2ccccc2-[n+]2ccc(/C=C/C=C/C3=C(O)c4ccccc4S3(=O)=O)cc21 [AI-SO]
[1]; Butanol (BuOH)
  Absorbance λmax: 650 nm
  Emission λmax: 675 nm
  Extinction coefficient ε: 118000
  Fluorescence quantum yield Φ: 0.92
[1]; C6H6
  Absorption energy Eabs Exp: 1.826 eV
  Emission energy Eem Exp: 1.794 eV
[1]; MeOH
  Absorption energy Eabs Exp: 2.120 eV
  Emission energy Eem Exp: 1.865 eV
[1]; Methanol (MeOH)
  Absorbance λmax: 610 nm
  Emission λmax: 654 nm
  Extinction coefficient ε: 65000
  Fluorescence quantum yield Φ: 0.54
[1]; Table 10, BuOH
  Observed absorption (ε): (118000)
  Observed absorption λmax: 650 nm
[1]; Table 10, C6H6
  Observed absorption (ε): (240000)
  Observed absorption λmax: 679 nm
[1]; Table 10, CH2Cl2
  Observed absorption (ε): (278000)
  Observed absorption λmax: 667 nm
[1]; Table 10, CH3CN
  Observed absorption (ε): (142000)
  Observed absorption λmax: 642 nm
[1]; Table 10, DMF
  Observed absorption (ε): (154000)
  Observed absorption λmax: 651 nm
[1]; Table 10, DMSO
  Observed absorption (ε): (118000)
  Observed absorption λmax: 644 nm
[1]; Table 10, EtOH
  Observed absorption (ε): (83000)
  Observed absorption λmax: 636 nm
[1]; Table 10, MeOH
  Observed absorption (ε): (65000)
  Observed absorption λmax: 610 nm
[1]; Table 10, OcOH
  Observed absorption (ε): (150000)
  Observed absorption λmax: 660 nm
[1]; Table 10, i-PrOH
  Observed absorption (ε): (122000)
  Observed absorption λmax: 648 nm
[1]; Table 12, C6H6
  Absorption Exp wavelength: 679 nm
[1]; Table 12, MeOH
  Absorption Exp wavelength: 585 nm
[1]; Table 15, BuOH
  Observed emission (Φ): 0.92
  Observed emission λmax: 675 nm
[1]; Table 15, C6H6
  Observed emission (Φ): 0.19
  Observed emission λmax: 691 nm
[1]; Table 15, CH2Cl2
  Observed emission (Φ): 0.54
  Observed emission λmax: 681 nm
[1]; Table 15, CH3CN
  Observed emission (Φ): 0.75
  Observed emission λmax: 667 nm
[1]; Table 15, DMF
  Observed emission λmax: 673 nm
[1]; Table 15, DMSO
  Observed emission λmax: 673 nm
[1]; Table 15, EtOH
  Observed emission (Φ): 0.82
  Observed emission λmax: 671 nm
[1]; Table 15, MeOH
  Observed emission (Φ): 0.54
  Observed emission λmax: 665 nm
[1]; Table 15, OcOH
  Observed emission (Φ): 0.88
  Observed emission λmax: 679 nm
[1]; Table 15, i-PrOH
  Observed emission (Φ): 0.96
  Observed emission λmax: 673 nm
[2]; C6H6
  kph * 10^6 (absolute rate of photobleaching): 128 s^−1
[2]; C6H6, with respect to standard I-SO in C6H6
  kph(rel) (relative rate of photobleaching): 115
[2]; MeOH
  kph * 10^6 (absolute rate of photobleaching): 89 s^−1
[2]; [4]
  kph(rel) (relative rate of photobleaching): 261
[3]
  kr(rel) (relative rate constants for product formation during reaction with singlet oxygen produced chemically): 59.2

## CCN1C(=O)\C(=C/C=C/C=C2/N(C)c3ccccc3C2(C)C)C(O)N(CC)C1=S (stereo not drawn) [I-TBA, reference compound]
[1]; C6H6
  Absorption energy Eabs Exp: 2.123 eV
  Emission energy Eem Exp: 2.050 eV
[1]; MeOH
  Absorption energy Eabs Exp: 2.127 eV
  Emission energy Eem Exp: 2.056 eV
[1]; Table 10, BuOH
  Observed absorption (ε): (190000)
  Observed absorption λmax: 589 nm
[1]; Table 10, C6H6
  Observed absorption (ε): (127000)
  Observed absorption λmax: 584 nm
[1]; Table 10, DMF
  Observed absorption (ε): (183000)
  Observed absorption λmax: 589 nm
[1]; Table 10, MeOH
  Observed absorption (ε): (173000)
  Observed absorption λmax: 583 nm
[1]; Table 10, OcOH
  Observed absorption (ε): (180000)
  Observed absorption λmax: 590 nm
[1]; Table 12, C6H6
  Absorption Exp wavelength: 585 nm
[1]; Table 12, MeOH
  Absorption Exp wavelength: 583 nm
[1]; Table 15, BuOH
  Observed emission (Φ): 0.61
  Observed emission λmax: 609 nm
[1]; Table 15, C6H6
  Observed emission (Φ): 0.20
  Observed emission λmax: 605 nm
[1]; Table 15, DMF
  Observed emission (Φ): 0.94
  Observed emission λmax: 611 nm
[1]; Table 15, MeOH
  Observed emission (Φ): 0.26
  Observed emission λmax: 603 nm
[1]; Table 15, OcOH
  Observed emission (Φ): 0.99
  Observed emission λmax: 609 nm
[1]; from C6H6 to DMF
  Observed red shift of emission ΔEem: 0.020 eV
  Observed red shift of emission Δλmax: 6 nm
[1]; from C6H6 to OcOH
  Observed red shift of absorption Δλmax: 6 nm
[1]; from OcOH to MeOH
  Observed blue shift of absorption Δλmax: 7 nm
[2]; MeOH
  kph * 10^6 (absolute rate of photobleaching): 0.34 s^−1
[2]; [4]
  kph(rel) (relative rate of photobleaching): 1.00
[3]
  kr(rel) (relative rate constants for product formation during reaction with singlet oxygen produced chemically): 1.00
